Laboratory results: patent publication US11867660B2, “Electronic control of the pH of a solution close to an electrode surface” (Robert Bosch GmbH, priority 2015, dated 2024)

Tests used:
[1] = Electro-oxidation/reduction of species at indium tin oxide electrode (voltammetry); assay type: physicochemical
Text: FIG. 7B: Cyclic voltammetric study of the oxidation of Ascorbic acid test in ITO electrodes. Current increase around 0.25V indicates the start of oxidation at ITO electrodes.
Electrode material used: The electrode material was indium tin oxide. This is a semiconducting electrode surface with very large potential window in an aqueous solution.
Oxidation of ascorbic acid at the electrode surfaces produced H^+ ions and changed the electrode surface pH to a more acidic state: AH2→A+2H^++2e^−, where AH2 is ascorbic acid ([…]) (as shown in FIG. 5). The electrode potential at which it oxidizes was less than 0.5V for Indium tin oxide material vs Ag/AgCl reference electrode (as shown in FIG. 7). This potential was less than the voltages needed for the oxygen evolution reaction in aqueous solution. Higher electrode potential (e.g. >1V for ITO electrodes in just phosphate buffer) can damage the PEG layer (as shown in FIG. 8). The ascorbic acid also acted as a sacrificial species to prevent electrochemical degradation of the surface chemistry.
Reduction of benzoquinone (C6H4O2) into Hydroquinone (C6H6O2) can produce OH− ions at −0.1V: BQ+2e^−+2H2O→HQ+2OH^− This reduction reaction increased the pH at the electrode interface.

[2] = biological target: Green Fluorescent Protein (GFP) (Aequorea victoria, UniProt P42212); assay: GFP fluorescence intensity after incubation with benzoquinones (protein stability); assay type: biochemical; settings: 0.5 mM benzoquinone, phosphate buffered saline, 30 min
Text: Para-benzoquinones and ortho-benzoquinones (compounds 2, 4, 6, and 9 in FIG. 22) are susceptible to nucleophilic attack at the double bond of the ring (positions 2, 3, 5 and 6 in structure 2 of FIG. 22, positions 3, 4, 5 and 6 in structure 4 of FIG. 22, and positions 2 and 3 in structure 6 of FIG. 22). Introducing substituents at some or all of those positions can mitigate the problem of nucleophilic attack. For example, 1,4-benzoquinone (structure 2 in FIG. 22, where R1, R2, R3 and R4 are H) undergoes Michael addition reaction with amino groups of proteins (Loomis et al., Phytochemistry, 5, 423, (1966) and U.S. Pat. No. 6,753,312 B2). […] Fluorescence intensity of Green Fluorescent Protein (GFP) was measured after incubation with three different benzoquinones in phosphate buffered saline for 30 min (concentration of benzoquinones was 0.5 mM). The difference in fluorescence intensity indicates the varied effect that the different substitutions in benzoquinones have on the stability of GFP. Fluorescence intensity of GFP is indicative of its structural integrity. Losses in fluorescence intensity usually indicate loss of its tertiary structure (protein denaturation) (Yin D. X., Zhu L., Schimke R. T. Anal. Biochem. 1996, 235:195-201).

| start of oxidation (current increase), cyclic voltammetry ([1]; ITO electrodes) | electrode potential at which it oxidizes ([1]; Indium tin oxide vs Ag/AgCl reference electrode) | SMILES | potential of reduction into hydroquinone producing OH- ions [1] [V] | loss in GFP fluorescence intensity [2] [%] |
| --- | --- | --- | --- | --- |
| around 0.25 V | less than 0.5 V | O=C1O[C@H]([C@@H](O)CO)C(O)=C1O [ascorbic acid] | – | – |
| – | – | O=C1C=CC(=O)C=C1 [unsubstituted benzoquinone, 1,4-benzoquinone] | −0.1 | 25 |
